# Earlier results in patent US20060024422A1, “Salt substitute compositions having N-neohexyl-a-aspartyl-l- phenylalanine methyl ester for modifying flavor and methods of manufacturing the same” (Cumberland Packing Corp., priority 2004, published 2006).
# Settings: on a weight basis
smiles,measurement,value
"COC(=O)[C@H](Cc1ccccc1)NC(=O)[C@H](CC(=O)O)NCCC(C)(C)C [neotame, N-[N-(3,3-dimethylbutyl)-L-α-aspartyl]-L-phenylalanine 1-methyl ester]",Sweetness relative to sucrose,"approximately 8,000 times"
